According to patent publication US4709079A, “Polyprenyl compounds, process for the production thereof and medicines containing same” (priority 1981, dated 1987):
Read-outs that look alike come from different tables or passages of the source.

Key:
[1] = tested on: carrageenan-induced edema; experiment: carrageenan-induced edema controlling test, sole edema method (Experiments 1 and 2); assay type: in vivo, male S.D. rats; conditions: for ED50: Rattus norvegicus, po, read-out: Median effective dose for carrageenan-induced edema ED50; for Control rate (carrageenan-induced edema): groups of 8 rats
Protocol: Effects of controlling carrageenan-induced edema were examined by the sole edema method, see Winter et al.; Pro. […] Exp. Biol. Med., 111, 544 (1962), wherein carrageenan was used as an inflaming agent and male S.D. rats weighing 150-180 g were used as the test animals (each group comprised 5 rats).
The test compound was dissolved in sesame oil and the solution was administered perorally to the rats 6 hours before the administration of the inflaming agent. The volumes of the hind leg soles were measured 3 hours after the administration of the inflaming agent. […] [formula] wherein a is the volume of the hind leg sole before the edema induction and b is the corresponding value after the edema induction. [formula] wherein c represents the average edema rate of the control group and d represents the edema rate of each animal to which the test compound was given.
Carrageenan-induced edema control rates were determined according to formula (2) in the same manner as in Experiment 1 except that each group comprised 8 rats.

gastric membranes = experiment: effects on gastric membranes of normal rats (ulceration); assay type: in vivo, Wistar ST rats
Text: Four hours thereafter, the ulceration conditions in the gastric membranes were examined.

[2] = tested on: adjuvant-induced arthritis; experiment: adjuvant-induced arthritis controlling test; assay type: in vivo, F-344 rats; conditions: po; for ED50: Rattus norvegicus, 456 h, read-out: Median effective dose for adjuvant-induced arthritis ED50
Protocol: Arthritis was induced in F-344 rates (6 weeks) (Japanese Charles Liver) according to the method of Winder, C. V., et al; Arthritis Rheum. 12, 472-482 (1969) and the controlling effects were examined. 0.05 ml. of a suspension (6 mg/ml) of Mycobacterium butyricum (Difco) in liquid paraffin was in]ected in the sole of the right leg of each rat to induce arthritis. […] The former was dissolved in sesame oil and the latter was suspended in acacia. The administration of the test compounds was started on the same day as the adjuvant injection. The test compounds were administered perorally every day for 19 days.

[3] = continuous peroral administration for one week; assay type: in vivo, SD rats; conditions: 50 mg/kg per day and 200 mg/kg per day continuously for one week
[4] = tested on: cold restraint stress-induced ulcer, gastric membranes; experiment: worsening of cold restraint stress-induced ulcer; assay type: in vivo, Wistar rats
Protocol: Cold restraint stress was applied to Wistar rats (7 weeks old) by a conventional method. […] Two hours after the application of stress, the length of ulcer (ulcer index) in the gastric membranes was measured.

[5] = comparison value for Indomethacin; species, sex and source not given; cited from earlier work
in vivo = conditions: rat, po, peroral, 20% solution in sesame oil
[6] = peroral, 6 hours before inflaming agent, measured 3 hours after, groups of 5 rats

CC(C)Cc1ccc(C(C)C(=O)O)cc1 (stereo not shown) [Ibuprofen, reference compound]
ED50 [1, 6]: 7.7 mg/kg

CC(C)=CCCC(C)=CCCC(C)=CCOC(=O)C(C)c1ccc(CC(C)C)cc1 (stereo not shown) [Compound B, 2-(4-isobutylphenyl)propionic acid 3,7,11-trimethyl-2,6,10-dodecatrienyl ester]
Control rate (carrageenan-induced edema) ([1]; dose 60 mg/kg, peroral): 30%

CC(=O)Oc1ccccc1C(=O)OCC=C(C)CCC=C(C)C [Compound E, Acetylsalicylic acid 3,7-dimethyl-2,6-octadienyl ester]
Control rate (carrageenan-induced edema) ([1]; dose 400 mg/kg, peroral): 52%

COc1ccc2c(c1)c(CC(=O)OCC=C(C)CCC=C(C)CCC=C(C)C)c(C)n2C(=O)c1ccc(Cl)cc1 [Compound C, 1-(p-Chlorobenzoyl)-2-methyl-5-methoxy-3-indolylacetic acid 3,7,11-trimethyl-2,6,10-dodecatrienyl ester]
Number of ulcerated rats (gastric membranes; dose 153 mg/kg, peroral, 4 hours, fasted normal rats): 0/5
ED50 [1, 6]: 6.5 mg/kg
Control rate (carrageenan-induced edema) ([1]; dose 9 mg/kg, peroral): 40%
Control rate (carrageenan-induced edema) ([1]; dose 18 mg/kg, peroral): 42%
ED50 ([2]; peroral, every day for 19 days): 3.6 mg/kg
health problem [3]: no health problem was observed

COc1ccc2c(c1)c(CC(=O)O)c(C)n2C(=O)c1ccc(Cl)cc1 [Indomethacin]
Ulcer index (mean ± S.E.) (gastric membranes; dose 20 mg/kg, peroral, 4 hours, fasted normal rats): 18.0 ± 3.2
Number of ulcerated rats (gastric membranes; rat, in vivo, 20 mg/kg): 5/5
Ulcer index (Mean ± S.E.), length of ulcer ([4]; dose 20.0 mg/kg, peroral, two hours after application of stress): 36.5 ± 7.3
macroscopic observation of gastric ulcer ([4]; rat, in vivo): linear ulcer accompanied with copious bleeding was clearly recognized
stress-induced ulcer ([4]; rat, in vivo): increased significantly
LD50 [5]: 18 mg/kg
ED50 ([1]; 3 h): 2.9 mg/kg
Control rate (carrageenan-induced edema) ([1]; dose 9 mg/kg, peroral): 38%
ED50 [2]: 1.5 mg/kg
LD50/ED50 ratio in the adjuvant-induced arthritis test ([2]; rat, in vivo): 14-15

CC(C)=CCCC(C)=CCCC(C)=CCCC(C)=CCOC(=O)Cc1ccccc1Nc1c(Cl)cccc1Cl [Compound A, 2-[(2,6-Dichlorophenyl)amino]phenylacetic acid 3,7,11,15-tetramethyl-2,6,10,14-hexadecatetraenyl ester]
Control rate (carrageenan-induced edema) ([1]; dose 18 mg/kg, peroral): 34%

COc1ccc2c(c1)c(CC(=O)OCC=C(C)CCC=C(C)CCC=C(C)CCC=C(C)C)c(C)n2C(=O)c1ccc(Cl)cc1 [Compound D, 1-(p-Chlorobenzoyl)-2-methyl-5-methoxy-3-indolylacetic acid 3,7,11,15-tetramethyl-2,6,10,14-hexadecatetraenyl ester]
Control rate (carrageenan-induced edema) ([1]; dose 9 mg/kg, peroral): 22%
Control rate (carrageenan-induced edema) ([1]; dose 18 mg/kg, peroral): 22%
LD50 (in vivo; female SD rats, read-out: LD50 female): 1530 to 3160 mg/kg
LD50 (in vivo; male SD rats, read-out: LD50 male): 2000 to 2520 mg/kg
health problem [3]: no health problem was observed
